The values that follow come from patent publication US11524966B1 (Valo Early Discovery, Inc., priority 2017, dated 2022).

The experiment deals with T1, USP28 (His-tagged USP28-FL-mammalian) (Homo sapiens, UniProt Q96RU2).
T1 construct: Expression of USP28 (1-1077)-TEV-6*His (pTT5 vector); made in house; host or cells: Expi293f cells (pTT5 vector)
T1 sequence (Q96RU2 1-1077): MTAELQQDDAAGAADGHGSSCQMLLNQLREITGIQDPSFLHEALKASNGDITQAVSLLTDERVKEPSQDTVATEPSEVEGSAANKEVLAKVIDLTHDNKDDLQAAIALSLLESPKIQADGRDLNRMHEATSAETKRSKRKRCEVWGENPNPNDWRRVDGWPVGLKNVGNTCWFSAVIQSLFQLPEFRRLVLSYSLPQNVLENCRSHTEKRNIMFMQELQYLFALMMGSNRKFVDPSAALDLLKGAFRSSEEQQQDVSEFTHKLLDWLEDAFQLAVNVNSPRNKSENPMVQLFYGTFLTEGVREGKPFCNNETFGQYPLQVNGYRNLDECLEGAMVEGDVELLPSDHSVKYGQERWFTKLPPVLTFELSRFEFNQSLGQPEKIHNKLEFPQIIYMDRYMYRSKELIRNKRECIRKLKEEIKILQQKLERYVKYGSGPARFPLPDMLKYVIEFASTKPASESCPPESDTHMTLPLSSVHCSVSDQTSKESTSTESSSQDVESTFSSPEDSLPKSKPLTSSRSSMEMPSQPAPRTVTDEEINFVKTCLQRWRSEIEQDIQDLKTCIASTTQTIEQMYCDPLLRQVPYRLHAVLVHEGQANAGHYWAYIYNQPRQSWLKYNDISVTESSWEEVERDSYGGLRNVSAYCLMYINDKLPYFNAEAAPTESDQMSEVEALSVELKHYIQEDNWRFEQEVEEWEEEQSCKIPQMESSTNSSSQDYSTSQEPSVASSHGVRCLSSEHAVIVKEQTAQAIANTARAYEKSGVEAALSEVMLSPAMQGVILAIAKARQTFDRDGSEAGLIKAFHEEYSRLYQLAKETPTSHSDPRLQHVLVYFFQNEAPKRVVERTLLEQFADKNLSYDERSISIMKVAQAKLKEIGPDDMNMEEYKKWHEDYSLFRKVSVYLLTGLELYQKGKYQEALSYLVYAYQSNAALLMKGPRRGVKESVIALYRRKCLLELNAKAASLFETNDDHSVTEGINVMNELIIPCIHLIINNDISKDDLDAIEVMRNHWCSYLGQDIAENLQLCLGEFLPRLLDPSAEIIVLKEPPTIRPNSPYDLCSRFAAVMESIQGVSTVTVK
The experiment can be described thus: Ubiquitin-Rhodamine 110 Assay for USP28 Activity, Example A-1(a). The note with it: Ubiquitin-Rhodamine 110 assay, Example A-1(a); read-out: USP28 A-1(a) IC50 range. The class given is biochemical. A digest of the protocol:
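Full-length His-tagged human USP28 (1-1077, Expi293f-expressed), […], with 25 nM Ub-Rh110 (<<Km) in pH 8.0 Tris buffer with BME, BGG, Triton X-100. 10-point dilutions (25 μM-1.3 nM), 45 min at room temperature, citric acid stop, fluorescence 485/535 nm; IC50 by 4-parameter fit.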

As usually defined, the IC50 is the midpoint of a concentration-inhibition curve. On to `Cc1ccc2c(N)c(C(=O)N[C@H]3COc4cc(N5C[C@@H](N)[C@@H](F)C5)ccc4C3)sc2n1` (single isomer, unassigned) [Example 3-5], for which the IC50 lay in the range of 1 to 50 nM.

Take `Cc1ccc2c(N)c(C(=O)N[C@H]3COc4cc(N5C[C@@H](F)[C@@H](N)C5)ccc4C3)sc2n1` (single isomer, unassigned) [Example 3-6]: the IC50 lay within 1 to 50 nM.

`COC[C@@H]1CN(c2nc3c(cc2F)C[C@H](NC(=O)c2sc4nc(C)ccc4c2N)CC3)C[C@@H]1N` (single isomer, unassigned) [Example 302]: the IC50 was 50 to 200 nM.

For `COC[C@H]1CN(c2nc3c(cc2F)C[C@H](NC(=O)c2sc4nc(C)ccc4c2N)CC3)C[C@H]1N` (single isomer, unassigned) [Example 303], the 50% inhibitory concentration (IC50) fell in the range of 200 to 2000 nM.

With `CO[C@H]1CCN(c2ccc3c(n2)CC[C@H](NC(=O)c2sc4nc(C)ccc4c2N)C3)C[C@@H]1N` (single isomer, unassigned) [Example 315], the IC50 was in the range of 50 to 200 nM.

On to `CO[C@@H]1CCN(c2ccc3c(n2)CC[C@H](NC(=O)c2sc4nc(C)ccc4c2N)C3)C[C@H]1N` (single isomer, unassigned) [Example 316], for which the IC50 was in the range of 50 to 200 nM.

`CCOC1CN(c2ccc3c(c2)OC[C@H](NC(=O)c2sc4nc(C)cc(C)c4c2N)C3)C[C@@H]1N` (stereo in doubt) [Example 323, 3-amino-N-[(3R)-7-[(3S,4R)-3-amino-4-ethoxypyrrolidin-1-yl]-3,4-dihydro-2H-1-benzopyran-3-yl]-4,6-dimethylthieno[2,3-b]pyridine-2-carboxamide]: the IC50 lay within 1 to 50 nM.

In the case of `COC[C@@]1(C)CN(c2ccc3c(n2)CC[C@H](NC(=O)c2sc4nc(C)ccc4c2N)C3)CC1N` (stereo in doubt) [Example 343, 3-amino-N-[(6S)-2-[(3S,4S)-4-amino-3-(methoxymethyl)-3-methylpyrrolidin-1-yl]-5,6,7,8-tetrahydroquinolin-6-yl]-6-methylthieno[2,3-b]pyridine-2-carboxamide], the half-maximal inhibitory concentration (IC50) lay in the range of 50 to 200 nM.

Turning to `COC[C@H]1C[C@H](N)CN1c1ccc2c(c1)OC[C@H](NC(=O)c1sc3nc(C)ccc3c1N)C2` [Example 261, 3-amino-N-[(3R)-7-[(2R,4S)-4-amino-2-(methoxymethyl)pyrrolidin-1-yl]-3,4-dihydro-2H-1-benzopyran-3-yl]-6-methylthieno[2,3-b]pyridine-2-carboxamide], the IC50 is 1 to 50 nM.

As for `COC[C@H]1C[C@@H](N)CN1c1ccc2c(c1)OC[C@H](NC(=O)c1sc3nc(C)ccc3c1N)C2` [Example 262, 3-amino-N-[(3R)-7-[(2R,4R)-4-amino-2-(methoxymethyl)pyrrolidin-1-yl]-3,4-dihydro-2H-1-benzopyran-3-yl]-6-methylthieno[2,3-b]pyridine-2-carboxamide], the IC50 was in the range of 1 to 50 nM.

On to `COC[C@@H]1C[C@H](N)CN1c1ccc2c(c1)OC[C@H](NC(=O)c1sc3nc(C)ccc3c1N)C2` [Example 263, 3-amino-N-[(3R)-7-[(2S,4S)-4-amino-2-(methoxymethyl)pyrrolidin-1-yl]-3,4-dihydro-2H-1-benzopyran-3-yl]-6-methylthieno[2,3-b]pyridine-2-carboxamide], for which the IC50 was in the range of 1 to 50 nM.

For the compound `N#Cc1c(N2CC3CCC(C2)N3)cc2c(c1F)C[C@@H](NC(=O)c1cnc3c(c1)[C@@H]1C[C@@H]1CN3)CO2` [Example 264, (6aS,7aR)-N-[(3R)-6-cyano-7-{3,8-diazabicyclo[3.2.1]octan-3-yl}-5-fluoro-3,4-dihydro-2H-1-benzopyran-3-yl]-5H,6H,6aH,7H,7aH-cyclopropa[c]1,8-naphthyridine-2-carboxamide], the half-maximal inhibitory concentration (IC50) was 1 to 50 nM.

On to `N#Cc1c(N2CC3CCC(C2)N3)cc2c(c1F)C[C@@H](NC(=O)c1cnc3c(c1)[C@H]1C[C@H]1CN3)CO2` [Example 265, (6aR,7aS)-N-[(3R)-6-cyano-7-{3,8-diazabicyclo[3.2.1]octan-3-yl}-5-fluoro-3,4-dihydro-2H-1-benzopyran-3-yl]-5H,6H,6aH,7H,7aH-cyclopropa[c]1,8-naphthyridine-2-carboxamide], for which the IC50 fell in the range of 50 to 200 nM.

Turning to `CO[C@H]1CN(c2ccc3c(n2)CC[C@H](NC(=O)c2sc4nc(C)cnc4c2N)C3)C[C@@H]1NC(C)=O` [Example 266, 7-amino-N-[(6S)-2-[(3S,4S)-3-acetamido-4-methoxypyrrolidin-1-yl]-5,6,7,8-tetrahydroquinolin-6-yl]-3-methylthieno[2,3-b]pyrazine-6-carboxamide], the IC50 is 200 to 2000 nM.

With `CCO[C@@H]1CN(c2ccc3c(c2)CC[C@H](NC(=O)c2sc4nc(C)ccc4c2N)C3)C[C@@H]1N` [Example 267, 3-amino-N-[(2S)-6-[(3S,4R)-3-amino-4-ethoxypyrrolidin-1-yl]-1,2,3,4-tetrahydronaphthalen-2-yl]-6-methylthieno[2,3-b]pyridine-2-carboxamide], the IC50 was 50 to 200 nM.

As to `CCO[C@H]1CN(c2ccc3c(c2)CC[C@H](NC(=O)c2sc4nc(C)ccc4c2N)C3)C[C@H]1N` [Example 268, 3-amino-N-[(2S)-6-[(3R,4S)-3-amino-4-ethoxypyrrolidin-1-yl]-1,2,3,4-tetrahydronaphthalen-2-yl]-6-methylthieno[2,3-b]pyridine-2-carboxamide], the concentration for half-maximal inhibition (IC50) was in the range of 50 to 200 nM.

Turning to `CO[C@@H]1CN(c2ccc3c(n2)CC[C@H](NC(=O)c2sc4nc(C)ccc4c2N)C3)C[C@@H]1N` [Example 269, 3-amino-N-[(6S)-2-[(3S,4R)-3-amino-4-methoxypyrrolidin-1-yl]-5,6,7,8-tetrahydroquinolin-6-yl]-6-methylthieno[2,3-b]pyridine-2-carboxamide], the half-inhibitory concentration (IC50) was 50 to 200 nM.

As to `CO[C@H]1CN(c2ccc3c(n2)CC[C@H](NC(=O)c2sc4nc(C)ccc4c2N)C3)C[C@H]1N` [Example 270, 3-amino-N-[(6S)-2-[(3R,4S)-3-amino-4-methoxypyrrolidin-1-yl]-5,6,7,8-tetrahydroquinolin-6-yl]-6-methylthieno[2,3-b]pyridine-2-carboxamide], the IC50 fell in the range of 50 to 200 nM.

`COC[C@@H]1CN(c2ccc3c(c2)OC[C@H](NC(=O)c2sc4nc(C)cc(C)c4c2N)C3)C[C@@H]1N` [Example 275, 3-amino-N-[(3R)-7-[(3R,4R)-3-amino-4-(methoxymethyl)pyrrolidin-1-yl]-3,4-dihydro-2H-1-benzopyran-3-yl]-4,6-dimethylthieno[2,3-b]pyridine-2-carboxamide]: the IC50 lay within 1 to 50 nM.

For the compound `COC[C@H]1CN(c2ccc3c(c2)OC[C@H](NC(=O)c2sc4nc(C)cc(C)c4c2N)C3)C[C@H]1N` [Example 276, 3-amino-N-[(3R)-7-[(3S,4S)-3-amino-4-(methoxymethyl)pyrrolidin-1-yl]-3,4-dihydro-2H-1-benzopyran-3-yl]-4,6-dimethylthieno[2,3-b]pyridine-2-carboxamide], the 50% inhibitory concentration (IC50) lay within 1 to 50 nM.

Regarding `COC[C@@H]1CN(c2cc(F)c3c(c2F)OC[C@H](NC(=O)c2sc4nc(C)cc(C)c4c2N)C3)C[C@@H]1N` [Example 277, 3-amino-N-[(3R)-7-[(3R,4R)-3-amino-4-(methoxymethyl)pyrrolidin-1-yl]-5,8-difluoro-3,4-dihydro-2H-1-benzopyran-3-yl]-4,6-dimethylthieno[2,3-b]pyridine-2-carboxamide], the half-inhibitory concentration (IC50) fell in the range of 1 to 50 nM.

As to `COC[C@H]1CN(c2cc(F)c3c(c2F)OC[C@H](NC(=O)c2sc4nc(C)cc(C)c4c2N)C3)C[C@H]1N` [Example 278, 3-amino-N-[(3R)-7-[(3S,4S)-3-amino-4-(methoxymethyl)pyrrolidin-1-yl]-5,8-difluoro-3,4-dihydro-2H-1-benzopyran-3-yl]-4,6-dimethylthieno[2,3-b]pyridine-2-carboxamide], the concentration for half-maximal inhibition (IC50) fell in the range of 1 to 50 nM.

For `CO[C@@]1(C)CN(c2ccc3c(n2)CC[C@H](NC(=O)c2sc4nc(C)cnc4c2N)C3)C[C@@H]1N` [Example 279, 7-amino-N-[(6S)-2-[(3S,4S)-4-amino-3-methoxy-3-methylpyrrolidin-1-yl]-5,6,7,8-tetrahydroquinolin-6-yl]-3-methylthieno[2,3-b]pyrazine-6-carboxamide], the IC50 fell in the range of 200 to 2000 nM.
